Patent US5543415A, “Antidepressants” (Kyowa Hakko Kogyo Co., Ltd., priority 1992, dated 1996)

system: ddY-strain male mice; test: Acute Toxicity Test (minimum lethal dose, oral); format: in vivo; conditions: seven days after administration
Protocol: Test compounds were orally administered to groups of ddY-strain male mice weighing 20±1 g, each group consisting of three mice. Seven days after the administration, minimum lethal dose (MLD) of each compound was determined by observing the mortality.

Structure (SMILES) | MLD (minimum lethal dose) [mg/kg]
CCCn1c(=O)c2[nH]c(/C=C/c3cccc([N+](=O)[O-])c3)nc2n(CCC)c1=O [Compound 35, (E)-8-(3-Nitrostyryl)-1,3-dipropylxanthine] | > 100
COc1ccc(/C=C/c2nc3c([nH]2)c(=O)n(C)c(=O)n3C)cc1Br [Compound 115, (E)-8-(3-Bromo-4-methoxystyryl)theophylline] | > 100
CCn1c(=O)c2c(nc(/C=C/c3cc(C)c(OC)cc3C)n2C)n(CC)c1=O [Compound 84, (E)-1,3-Diethyl-8-(4-methoxy-2,5-dimethylstyryl)-7-methylxanthine] | > 300
CCn1c(=O)c2c(nc(/C=C/c3ccc(OCCCCN=[N+]=[N-])cc3)n2C)n(CC)c1=O [Compound 187, (E)-8-[4-(4-Azidobutoxy)styryl]-1,3-diethyl-7-methylxanthine] | > 100
CCn1c(=O)c2[nH]c(/C=C/c3cccc(OC)c3)nc2n(CC)c1=O [Compound 139, (E)-1,3-Diethyl-8-(3-methoxystyryl)xanthine] | > 100
CCn1c(=O)c2c(nc(/C=C/c3ccc4c(c3)OCCO4)n2C)n(CC)c1=O [Compound 90, (E)-8-[2-(1,4-Benzodioxan-6-yl)vinyl]-1,3-diethyl-7-methylxanthine] | > 300
CCn1c(=O)c2[nH]c(/C=C/c3ccccc3OC)nc2n(CC)c1=O [Compound 157, (E)-1,3-Diethyl-8-(2-methoxystyryl)xanthine] | > 100
CCCn1c(=O)c2[nH]c(/C=C/c3cc(OC)c(OCc4ccccc4)c(OC)c3)nc2n(CCC)c1=O [Compound 27, (E)-8-(4-Benzyloxy-3,5-dimethoxystyryl)-1,3-dipropylxanthine] | > 100
CCn1c(=O)c2[nH]c(/C=C/c3cc(OC)cc(OC)c3)nc2n(CC)c1=O [Compound 129, (E)-8-(3,5-Dimethoxystyryl)-1,3-diethylxanthine] | > 100
CCn1c(=O)c2[nH]c(/C=C/c3cc4c(cc3Br)OCO4)nc2n(CC)c1=O [Compound 165, (E)-8-(2-Bromo-4,5-methylenedioxystyryl)-1,3-diethylxanthine] | > 100
C=CCn1c(=O)c2nc(/C=C/c3cc(OC)c(OC)c(OC)c3)[nH]c2n(CC=C)c1=O [Compound 12, (E)-1,3-diallyl-8-(3,4,5-trimethoxystyryl)xanthine] | > 300
COc1ccc(/C=C/c2nc3c(c(=O)n(C)c(=O)n3C)n2C)c(C)c1C [Compound 94, (E)-8-(4-Methoxy-2,3-dimethylstyryl)caffeine] | > 100
CCCn1c(=O)c2c(nc(/C=C/c3cc(Br)c(OC)c(OC)c3)n2C)n(CCC)c1=O [Compound 61, (E)-8-(3-Bromo-4,5-dimethoxystyryl)-7-methyl-1,3-dipropylxanthine] | > 100
CCn1c(=O)c2[nH]c(/C=C/c3ccc(OCOC)cc3)nc2n(CC)c1=O [Compound 145, (E)-1,3-Diethyl-8-(4-methoxymethoxystyryl)xanthine] | > 100
CCCn1c(=O)c2nc(/C=C/c3cc(OC)c(OC)c(OC)c3)[nH]c2n(CCC)c1=O [Compound 10, (E)-1,3-dipropyl-8-(3,4,5-trimethoxystyryl)xanthine] | > 300
CCn1c(=O)c2[nH]c(/C=C/c3cccc(F)c3C)nc2n(CC)c1=O [Compound 180, (E)-1,3-Diethyl-8-(3-fluoro-2-methylstyryl)xanthine] | > 100

Structure (SMILES) | MLD (minimum lethal dose) [mg/kg]
CCn1c(=O)c2c(nc(C(F)=Cc3ccccc3)n2C)n(CC)c1=O (stereo in doubt) [Compound 138, (E)-1,3-Diethyl-8-(α-fluorostyryl)-7-methylxanthine] | > 100
CCCn1c(=O)c2[nH]c(/C=C/c3cc(C)c(OC)cc3C)nc2n(CCC)c1=O [Compound 45, (E)-8-(4-Methoxy-2,5-dimethylstyryl)-1,3-dipropylxanthine] | > 300
COc1cc(/C=C/c2nc3c(=O)n(C)c(=O)n(C)c3[nH]2)cc(OC)c1OC [Compound 11, (E)-8-(3,4,5-trimethoxystyryl)theophylline] | > 300
CCn1c(=O)c2[nH]c(/C=C/c3cc(C(F)(F)F)cc(C(F)(F)F)c3)nc2n(CC)c1=O [Compound 153, (E)-8-[3,5-Bis(trifluoromethyl)styryl]-1,3-diethylxanthine] | > 100
CCCn1c(=O)c2[nH]c(/C=C/c3cc(Br)c(OC)c(OC)c3)nc2n(CCC)c1=O [Compound 60, (E)-8-(3-Bromo-4,5-dimethoxystyryl)-1,3-dipropylxanthine] | > 300
CCn1c(=O)c2c(nc(/C=C/c3ccc(F)c(F)c3)n2C)n(CC)c1=O [Compound 112, (E)-8-(3,4-Difluorostyryl)-1,3-diethyl-7-methylxanthine] | > 300
CCn1c(=O)c2[nH]c(/C=C/c3ccc(OC)c(C)c3C)nc2n(CC)c1=O [Compound 81, (E)-1,3-Diethyl-8-(4-methoxy-2,3-dimethylstyryl)xanthine] | > 300
CCCn1c(=O)c2c(nc(/C=C/c3cccc(F)c3)n2C)n(CCC)c1=O [Compound 38, (E)-8-(3-Fluorostyryl)-7-methyl-1,3-dipropylxanthine] | > 300
CCn1c(=O)c2c(nc(/C=C/c3ccc(Br)cc3)n2C)n(CC)c1=O [Compound 142, (E)-8-(4-Bromostyryl)-1,3-diethyl-7-methylxanthine] | > 100
CCCOc1ccc(/C=C/c2nc3c([nH]2)c(=O)n(CCC)c(=O)n3CCC)cc1 [Compound 50, (E)-8-(4-Propoxystyryl)-1,3-dipropylxanthine] | > 100
CCn1c(=O)c2c(nc(/C=C/c3ccc(O)c(O)c3)n2C)n(CC)c1=O [Compound 182, (E)-8-(3,4-Dihydroxystyryl)-1,3-diethyl-7-methylxanthine] | > 100
CCn1c(=O)c2[nH]c(/C=C/c3cccc(Oc4ccccc4)c3)nc2n(CC)c1=O [Compound 191, (E)-1,3-Diethyl-8-(3-phenoxystyryl)xanthine] | > 100
C#CCn1c(/C=C/c2ccc(OC)c(OC)c2)nc2c1c(=O)n(CCC)c(=O)n2CCC [Compound 67, (E)-8-(3,4-Dimethoxystyryl)-7-propargyl-1,3-dipropylxanthine] | > 300
CCCn1c(=O)c2nc(/C=C/c3ccc(OC)c(OC)c3OC)[nH]c2n(CCC)c1=O [Compound 21, (E)-1,3-Dipropyl-8-(2,3,4-trimethoxystyryl)xanthine] | > 300
CCCn1c(=O)c2c(nc(/C=C/c3cccc([N+](=O)[O-])c3)n2C)n(CCC)c1=O [Compound 36, (E)-7-Methyl-8-(3-nitrostyryl)-1,3-dipropylxanthine] | > 100
CCCn1c(=O)c2c(nc(/C=C/c3ccc(OC)c4ccccc34)n2C)n(CCC)c1=O [Compound 63, (E)-8-[2-(4-Methoxynaphthyl)vinyl]-7-methyl-1,3-dipropylxanthine] | > 300
